According to US8629277B2, “Styrenyl 1,2,4-oxadiazole compounds” (Piramal Enterprises Limited, priority 2010, dated 2014):
Like-named read-outs stand apart in the source and are kept apart here.

Assays:
Ba/F3 Bcr-Abl/F359V = target: T1, Ba/F3 Bcr-Abl/F359V (Homo sapiens, UniProt P00519, F359V, cells depend on it); assay: Cell proliferation and cytotoxicity CCK-8 assay; type: cell-based; conditions: mouse, 72 h
T1 construct: fused on or other part: P11274 (Breakpoint cluster region protein)

Ba/F3 Bcr-Abl/T315I = Ba/F3 Bcr-Abl/T315I (Homo sapiens, UniProt P00519, T315I, cells depend on it)
From the text: (§1) Cell Proliferation and Cytotoxicity CCK-8 Assay:
(§2) Cell Counting Kit-8 (CCK-8) assay is a sensitive colorimetric assay for the determination of number of viable cells in cell proliferation and cytotoxicity assays. Cell Counting Kit-8 (CCK-8) utilizes Dojindo's highly water-soluble tetrazolium salt. The amount of the formazan dye generated by dehydrogenases in cells is directly proportional to the number of living cells.
(§3) The cell lines described in Table 1 were used to test the antiproliferative activity of the compounds of the present invention.
(§4) Cells were seeded at a density of ˜5×10^3 per well (0.09 mL) in a transparent 96-well tissue culture plate (NUNC, USA) and allowed to incubate at 37° C., 5% CO2 incubator for 2-6 h. Different concentrations of compounds of the present invention were added to the wells of the culture plate in triplicate. […] Plates were further incubated in an incubator at 37° C. in presence of 5% CO2 for 72 h. 10 μL of the CCK-8 solution was added to each well and plate was incubated for 1-4 h in the incubator. The absorbance was measured at 450 nm using a microplate reader. The percent inhibition and IC50 were calculated in comparison with control values.

K562 = assay: Flow cytometric analysis of apoptosis (PI staining); type: cell-based, human
Description: (§5) Effect of the Compounds of Present Invention in Bcr-Abl Mutated Imatinib Mesylate-Resistant Cell Lines on Cell Cycle and Apoptosis Using Flow Cytometry.
(§6) The assay was carried out as in reference, FEBS Letters, 2007, 581, 7, 1329-1334. […] At the end of incubation, cells were harvested by centrifugation at 1000 rpm for 10 minutes, washed with phosphate buffered saline (PBS) and gradually resuspended in 70% ice-cold ethanol (to facilitate the permeablisation of stains). Cell suspension was stored for a minimum period of 4 h before staining with propidium iodide (PI). Fixed cells were stained with PI (80 μg/mL) in presence of RNase A (50 μg/mL), and read on Becton Dickinson FACS Calibur (USA) for cell cycle analysis.

Ba/F3 Bcr-Abl/M244V = target: T2, Ba/F3 Bcr-Abl/M244V (Homo sapiens, UniProt P00519, M244V, cells depend on it); assay: Cell proliferation and cytotoxicity CCK-8 assay; type: cell-based; conditions: mouse, 72 h
T2 construct: fused on or other part: P11274 (Breakpoint cluster region protein)

Ba/F3 Bcr-Abl/WT [1] = target: T3, Ba/F3 Bcr-Abl/WT (Homo sapiens, UniProt P00519); assay: Cell proliferation and cytotoxicity CCK-8 assay; type: cell-based; conditions: imatinib sensitive cell line; CCK-8, 72 h; read-out: Inhibitory concentrations (IC50) Ba/F3 Bcr-Abl/WT
T3 construct: fused on or other part: P11274 (Breakpoint cluster region protein)
From the text: as §1, §2, §3, §4

Ba/F3 Bcr-Abl/WT [2] = assay: In-vivo efficacy in imatinib-sensitive xenograft model in SCID mice; conditions: 200 mpk b.i.d., p.o.
Description: In-vivo efficacy testing of compounds of the present invention in imatinib resistant and imatinib sensitive tumor models was carried out according to the reference Cancer Research, 2002, 62, 7149-7153.
Cell lines Ba/F3 transfectants expressing full-length wild type imatinib sensitive (Ba/F3 Bcr-Abl/WT) or mutated imatinib resistant (Ba/F3 Bcr-Abl/T315I) were used in this study. These recombinant cell lines were licensed from Dr. Brian Druker's laboratory, Howard Hughes Medical Institute, Oregon Health and Science University Cancer Institute, Portland, Oreg., USA.
Required compound was weighed and admixed with 0.5% (w/v) carboxymethylcellulose (CMC) and triturated with Tween-20 (secundum artum) with gradual addition of water to make up the final concentration. Imatinib mesylate was used as a standard.
A group of 110 Severely Combined Immune-Deficient (SCID strain-CBySmn.CB17-Prkdc^scid/J, The Jackson Laboratory, Stock #001803) male mice, 5-6 weeks old, weighing ˜20 g, were used.
Ba/F3 Bcr-Abl/WT cells and Ba/F3 Bcr-Abl/T315I cells were grown in RPMI1640 medium containing 10% fetal calf serum in 5% CO2 incubator at 37° C. Cells were pelleted by centrifugation at 1000-rpm for 10 minutes. […] Tumor size was recorded at 2-5 day intervals. […] Tumor growth in compound treated animals is calculated as T/C (Treated/Control)×100% and Growth inhibition Percent (GI %) was [100−T/C %].

Ba/F3 Bcr-Abl/M351T = target: T4, Ba/F3 Bcr-Abl/M351T (Homo sapiens, UniProt P00519, M351T, cells depend on it); assay: Cell proliferation and cytotoxicity CCK-8 assay; type: cell-based; conditions: mouse, 72 h
T4 construct: fused on or other part: P11274 (Breakpoint cluster region protein)

Ba/F3 Bcr-Abl/H396R = target: T5, Ba/F3 Bcr-Abl/H396R (Homo sapiens, UniProt P00519, H396R, cells depend on it); assay: Cell proliferation and cytotoxicity CCK-8 assay; type: cell-based; conditions: mouse, 72 h
T5 construct: fused on or other part: P11274 (Breakpoint cluster region protein)

Ba/F3 Bcr-Abl/Y253F = target: T6, Ba/F3 Bcr-Abl/Y253F (Homo sapiens, UniProt P00519, Y253F, cells depend on it); assay: Cell proliferation and cytotoxicity CCK-8 assay; type: cell-based; conditions: mouse, 72 h
T6 construct: fused on or other part: P11274 (Breakpoint cluster region protein)

Ba/F3 Bcr-Abl/E255V = target: T7, Ba/F3 Bcr-Abl/E255V (Homo sapiens, UniProt P00519, E255V, cells depend on it); assay: Cell proliferation and cytotoxicity CCK-8 assay; type: cell-based; conditions: mouse, 72 h
T7 construct: fused on or other part: P11274 (Breakpoint cluster region protein)

Y253 = assay: Flow cytometric analysis of apoptosis (PI staining); type: cell-based
Description: as §5, §6

T315I = assay: as above; type: cell-based
Description: as §5, §6

E255V = assay: as above; type: cell-based
Description: as §5, §6

Ba/F3 = assay: as above; type: cell-based
Description: as §5, §6

Ba/F3 Bcr-Abl/E255K = target: T8, Ba/F3 Bcr-Abl/E255K (Homo sapiens, UniProt P00519, E255K, cells depend on it); assay: Cell proliferation and cytotoxicity CCK-8 assay; type: cell-based; conditions: mouse, 72 h
T8 construct: fused on or other part: P11274 (Breakpoint cluster region protein)

[3] = mouse, ba/f3 bcr-abl/t315i, 72 h
[4] = read-out: Inhibitory concentrations (IC50) Ba/F3 Bcr-Abl/T315I, imatinib resistant cell line, CCK-8, 72 h

| Compound | GI50 (Ba/F3 Bcr-Abl/F359V) | GI50 (Ba/F3 Bcr-Abl/T315I; [3]) | GI50 (Ba/F3 Bcr-Abl/T315I; [4]) | % Apoptosis by Flow Cytometry Analysis (K562; 3X IC50, 96 h time point) | % Apoptosis by Flow Cytometry Analysis (K562; 5X IC50, 48 h time point) | % Apoptosis by Flow Cytometry Analysis (K562; 5X IC50, 96 h time point) | GI50 (Ba/F3 Bcr-Abl/M244V) | GI50 (Ba/F3 Bcr-Abl/WT [1]) | Tumor growth inhibition percent (% GI) Ba/F3 Bcr-Abl/WT (Ba/F3 Bcr-Abl/WT [2]) | GI50 (Ba/F3 Bcr-Abl/M351T) | GI50 (Ba/F3 Bcr-Abl/H396R) | GI50 (Ba/F3 Bcr-Abl/Y253F) | GI50 (Ba/F3 Bcr-Abl/E255V) | % Apoptosis by Flow Cytometry Analysis (Y253; 3X IC50, 96 h time point) | % Apoptosis by Flow Cytometry Analysis (Y253; 5X IC50, 48 h time point) | % Apoptosis by Flow Cytometry Analysis (Y253; 5X IC50, 96 h time point) | % Apoptosis by Flow Cytometry Analysis (T315I; 3X IC50, 96 h time point) | % Apoptosis by Flow Cytometry Analysis (T315I; 5X IC50, 48 h time point) | % Apoptosis by Flow Cytometry Analysis (T315I; 5X IC50, 96 h time point) | % Apoptosis by Flow Cytometry Analysis (E255V; 3X IC50, 96 h time point) | also measured |
| --- | --- | --- | --- | --- | --- | --- | --- | --- | --- | --- | --- | --- | --- | --- | --- | --- | --- | --- | --- | --- | --- |
| CCCc1noc(C=Cc2ccc(O)c(O)c2)n1 [Compound of Example 3, 4-[2-(3-Propyl-[1,2,4]oxadiazol-5-yl)-vinyl]-benzene-1,2-diol] | 2000 ± 420 nM | 2320 ± 680 nM | < 10000 nM | 5% | 12.7% | 3.4% | 2100 nM | < 10000 nM | 63% | 5700 ± 1700 nM | 2250 ± 770 nM | 1500 ± 560 nM | 2100 ± 750 nM | 62% | 87.5% | 94.9% | 78% | 97.6% | 85% | 78% | % Apoptosis by Flow Cytometry Analysis (E255V; 5X IC50, 48 h time point): 91.2%; % Apoptosis by Flow Cytometry Analysis (E255V; 5X IC50, 96 h time point): 90.9%; % Apoptosis by Flow Cytometry Analysis (Ba/F3; 3X IC50, 96 h time point): 95%; % Apoptosis by Flow Cytometry Analysis (Ba/F3; 5X IC50, 48 h time point): 46%; % Apoptosis by Flow Cytometry Analysis (Ba/F3; 5X IC50, 96 h time point): 84%; GI50 (Ba/F3 Bcr-Abl/E255K): 5400 nM |
| Oc1ccc(C=Cc2nc(Cc3ccccc3)no2)cc1O [Compound of Example 4, 4-[2-(3-Benzyl-[1,2,4]oxadiazol-5-yl)-vinyl]-benzene-1,2-diol] | 3000 ± 700 nM | 1880 ± 310 nM | < 10000 nM | 10% | 12.2% | 5.2% | 2300 nM | < 10000 nM | 36% | 7500 ± 700 nM | 3050 ± 70 nM | 2100 ± 140 nM | 4000 ± 1400 nM | 70.6% | 89% | 96.6% | 80.58% | 98.2% | 63.9% | 94.4% | % Apoptosis by Flow Cytometry Analysis (E255V; 5X IC50, 48 h time point): 93%; % Apoptosis by Flow Cytometry Analysis (E255V; 5X IC50, 96 h time point): 97.4%; % Apoptosis by Flow Cytometry Analysis (Ba/F3; 3X IC50, 96 h time point): 97%; % Apoptosis by Flow Cytometry Analysis (Ba/F3; 5X IC50, 48 h time point): 46%; % Apoptosis by Flow Cytometry Analysis (Ba/F3; 5X IC50, 96 h time point): 93%; GI50 (Ba/F3 Bcr-Abl/E255K): > 10000 nM |
